# Assay results as given in article PMC3923778 (PLoS Currents, 2014).
# Entries after “also recorded” stand apart in the source; their conditions may differ.
# How the values were obtained:
# [1] = set-up: method as in PMID 8961086; details: rats; ref [27]; read-out: plasma Cmax exposure; cited from earlier work
# PDE2 = tested on: PDE2; set-up: method as in PMID 9216839, PMID 17697115, PMID 10618442, PMID 8961086, PMID 7581878; details: ref [12], [23], [25], [27], [28], read-out: previously reported potencies; cited from earlier work
# R6/2 hippocampal slices = experiment: Electrophysiological evaluation in R6/2 hippocampal slices (MEA, fEPSP); set-up: species or system mouse
# Protocol: Electrophysiology was conducted at Neuroservice SARL, France. All animals were group housed under environmentaly enriched conditions and used in accordance with European legislations for animal care. On the day of recording, 7-8 week old R6/2 or wild type littermate (WT) mice were decapitated without anaesthesia followed by rapid brain removal into ice-cold oxygenated buffer (in mM; saccharose, 250, KCl 2, NaH2PO4 1.2, MgCl2 7, CaCl2 0.5, NaHCO3 26, glucose 11). Hippocampal slices (350 μm thickness) were prepared with a MacIlwain tissue-chopper and incubated at room temperature (RT, 18 – 22 °C) and allowed to recover for at least 1 h prior to recording in oxygenated Artificial Cerebro-Spinal Fluid (ACSF) of the following composition: (in mM; NaCl, 126, KCl 3.5, NaH2PO4 1.2, MgCl2 1.3, CaCl2 2, NaHCO3 25, D-glucose 11, pH 7.2). For experiments, individual slices were transferred to a 3-dimensional 60 electrode MEA chip (Ayanda Biosystems, Lausanne, Switzerland) and continuously perfused with oxygenated (95% O2–5% CO2) ACSF at 37 °C at a rate of 3 mlmin^-1, allowing for complete solution exchange within the MEA chamber 20 s following solution switches (MEA chamber volume: ~1 mL).
# For stimulation, one MEA electrode underlying the Schaeffer collaterals at the CA3/CA1 interface was chosen visually as the stimulating electrode. The stimulus consisted of a monopolar biphasic current pulse (negative for 60 μs and then positive for 60 μs) applied at a frequency of 0.03 Hz. Recordings of resultant field excitatory postsynaptic potentials (fEPSPs) from electrodes underlying the CA1 region were made using MultiChannel Systems MCS GmbH software (MC Stim, MS Rack) and hardware composed of a 4-channel stimulus generator and a 60-channel amplifier head-stage connected to a 60-channel A/D card (Reutlingen, Germany). […] Paired pulse facilitation (PPF) was then assessed at 40 % of the maximal fEPSP amplitude response (as defined from the I/O curve) by delivering two pulses to the stimulating electrode with decreasing inter-stimulus intervals (ISI of 300 ms, 200 ms, 100 ms, 50 ms, 25 ms). PPF was performed 4 times per slice, and the resultant 4 fEPSP amplitudes at a given ISI were averaged together. […]
# For measurement of long term potentiation (LTP), basal fEPSPs were recorded at 0.03 Hz for ten minutes at 40 % of maximal FEPSP amplitude to verify the baseline stability. […] Potentiation of fEPSP amplitude was then monitored for an additional 60 minute period. […]
# For each slice, the fEPSP values at each electrode recorded within the CA1 region were averaged to obtain a single fEPSP value per slice per timepoint. […] Data was analysed using Repeat Measure Two-way ANOVA followed by a post hoc Bonferroni test to analyse statistical significance of single data points using Prism 5.0 software. […]
# aggregated HTT = experiment: Seprion ligand based ELISA of aggregate load; format: in vivo, mouse; details: chronic administration; 13 weeks of age; lower dose group study
# Description: Aggregates were captured in Seprion ligand coated plates (Microsens) and detected using the S830 sheep polyclonal or MW8 mouse monoclonal antibodies as described.
# PDE9 = tested on: PDE9; set-up: method as in PMID 9216839, PMID 17697115, PMID 10618442, PMID 8961086, PMID 7581878; details: ref [12], [23], [25], [27], [28], read-out: previously reported potencies; cited from earlier work
# R6/2 mice = experiment: Grip Strength; format: in vivo, mouse; set-up: key to Grip Strength: direction of significant change vs Vehicle-treated R6/2 mice: ▲: significant enhancement compared to Vehicle-treated R6/2 mice (One-way ANOVA, Dunnett’s post-hoc); ▼: significant impairment compared to Vehicle-treated R6/2 mice (One-way ANOVA, Dunnett’s post-hoc)
# Protocol: Motor function testing including open field and rear climbing tests were commenced at 4 weeks of age and continued at weeks 6, 8 and 12, for grip strength test at age weeks 4 and 12 and for rotarod at age weeks 4, 6 and 8. Compound treatment was started at 4 weeks of age after the baseline behavioral tests.
# Grip strength measurement was performed at age weeks 4 and 12. The mice were tested on Monday afternoons. Mice were taken to the experimental room and, one at a time, were placed on the grip-strength apparatus (San Diego Instruments, San Diego, USA) in such a way that the animal grabs a small mesh grip with its forepaws. The entire apparatus is placed on a table top for testing. Animals are lowered to the platform and then slowly pulled away from the handle by the tail until the animal releases the handle. The equipment automatically measures the strength of the animal’s grip in grams. Five scores were recorded per animal in consecutive sequence. Mice were returned to their home cage after testing.
# All values are presented as mean ± Standard Error of Mean (SEM), and differences are considered to be statistically significant at the p < 0.05 level. Statistical analysis was performed using StatsDirect statistical software. Differences between group means were analyzed by 1-way-ANOVA followed by Dunnett’s test (comparison to the control (=vehicle treated TG mice) group). The acquisition of the Cued two-choice swim test was analyzed using Fisher’s exact test.
# [2] = Age Week 12, 30 mg/kg p.o., BID
structure (smiles),measurement,setting,value
"CN1C(=O)c2nc(Cc3ccc(C(F)(F)F)cc3)[nH]c2N2C1=N[C@H]1CCC[C@H]12 [SCH-51866, (+)-cis-5,6a,7,8,9,9a-hexahydro-2-[4-[trifluro-methyl]phenylmethyl]-5-methyl-cylopent[4,5]imidazo [2,1-b]purin-4(3H)one]",Cmax,[1],2.37 to 3.8 µM
same,IC50,PDE2,2 µM
same,basal synaptic transmission (input/output characteristics),"R6/2 hippocampal slices; 3 µM, R6/2 slices",no significant effect; also recorded: did not significantly reduce
same,paired pulse facilitation (PPF),"R6/2 hippocampal slices; 3 µM, R6/2 slices",restored R6/2 paired-pulse facilitation (PPF) to WT levels; also recorded: significantly restored to WT levels
same,long-term potentiation (LTP),"R6/2 hippocampal slices; 3 µM, R6/2 slices, vs ACSF alone",did not restore the deficit; also recorded: did not result in an amplitude of LTP significantly different
same,"electrophysiological parameters in hippocampal slices, overall",R6/2 hippocampal slices; concentration sufficient to fully inhibit the PDE1 enzyme,does not improve
same,aggregate load in the cortex and hippocampus (Seprion ligand ELISA),aggregated HTT,no effect
same,IC50,PDE9,44 µM
same,"Grip strength, effect in words","R6/2 mice; 30 mg/kg, 12 weeks of age, vs R6/2 vehicle group",improvement in grip strength; also recorded: positive effect in improving grip strength; also recorded: significantly improved over the R6/2 vehicle group
same,Grip Strength: p vs Vehicle-treated R6/2 mice,"R6/2 mice; Age Week 4, 10 mg/kg p.o., BID, ANOVA",ANOVA: p=0.612
same,Grip Strength: p vs Vehicle-treated R6/2 mice,"R6/2 mice; Age Week 4, 30 mg/kg p.o., BID, ANOVA",ANOVA: p=0.612
same,Grip Strength: p vs Vehicle-treated R6/2 mice,"R6/2 mice; Age Week 12, 10 mg/kg p.o., BID",p=0.860
same,Grip Strength: direction of significant change vs Vehicle-treated R6/2 mice,R6/2 mice; [2],▲
same,Grip Strength: p vs Vehicle-treated R6/2 mice,R6/2 mice; [2],0.006
